Patent US9549553B2, “Active compound combinations having insecticidal properties” (BAYER CROPSCIENCE AKTIENGESELLSCHAFT, priority 2013, dated 2017)

How the values were obtained:
Type in all cases: in vivo
[1] = system: two spotted spidermite (Tetranychus urticae); test: Tetranychus urticae - spray test, OP-resistant (French beans); conditions: mortality, 1 g ai/ha
Description: (§1) To produce a suitable preparation of active compound, 1 part by weight of active compound is mixed with the stated amount of solvent and emulsifier, and the concentrate is diluted with emulsifier-containing water to the desired concentration. To produce a suitable preparation of a spore suspension the spores are diluted with emulsifier-containing water to the desired concentration.
French beans (Phaseolus vulgaris) which are heavily infested with all stages of the two spotted spidermite (Tetranychus urticae), are sprayed with a preparation of the active ingredient of the desired concentration.
After the specified period of time, mortality in % is determined. 100% means all spider mites have been killed and 0% means none of the spider mites have been killed. The mortality values determined thus are recalculated using the Colby-formula (see sheet 1).

[2] = system: larvae of the diamondback moth (Plutella xylostella); test: Plutella xylostella - spray test (cabbage leaves); conditions: mortality
Description: To produce a suitable preparation of active compound, 1 part by weight of active compound is mixed with the stated amount of solvent and emulsifier, and the concentrate is diluted with emulsifier-containing water to the desired concentration Ammonium salt and/or penetration enhancer in a dosage of 1000 ppm are added to the desired concentration if necessary.
Cabbage leaves (Brassica oleracea) are treated by being sprayed with the preparation of the active compound of the desired concentration and are infested with larvae of the diamondback moth (Plutella xylostella).
After the specified period of time, the mortality in % is determined. 100% means all the caterpillars have been killed; 0% means none of the caterpillars have been killed. The mortality values determined thus are recalculated using the Colby-formula (see sheet 1).

[3] = system: green peach aphid (Myzus persicae); test: Myzus persicae - spray test, Example C-1 (Chinese cabbage leaf-disks); conditions: mortality
Description: To produce a suitable preparation of active compound, 1 part by weight of active compound is mixed with the stated amount of solvent and emulsifier, and the concentrate is diluted with emulsifier-containing water to the desired concentration.
Chinese cabbage (Brassica pekinensis) leaf-disks infected with all instars of the green peach aphid (Myzus persicae) are sprayed with a preparation of the active ingredient of the desired concentration.
After the specified period of time, mortality in % is determined 100% means all aphids have been killed; 0% means none of the aphids have been killed. The mortality values determined thus are recalculated using the Colby-formula (see sheet 1).

[4] = system: mustard beetle larvae (Phaedon cochleariae); test: Phaedon cochleariae - spray test, Example B-1 (Chinese cabbage leaf-disks); conditions: mortality
Description: as §1
Chinese cabbage (Brassica pekinensis) leaf-disks are sprayed with a preparation of the active ingredient of the desired concentration. Once dry, the leaf disks are infested with mustard beetle larvae (Phaedon cochleariae).
After the specified period of time, mortality in % is determined. 100% means all beetle larvae have been killed and 0% means none of the beetle larvae have been killed. The mortality values determined thus are recalculated using the Colby-formula (see sheet 1).

[5] = system: mustard beetle larvae (Phaedon cochleariae); test: Phaedon cochleariae - spray test, Example B-2 (cabbage leaves); conditions: mortality
Description: (§2) Solvent: 7 parts by weight of dimethylformamide
Emulsifier: alkylaryl polyglycol ether
(§3) To produce a suitable preparation of active compound, 1 part by weight of active compound is mixed with the stated amount of solvent and is diluted with water, containing an emulgator concentration of 1000 ppm, to the desired concentration. Further test concentrations are prepared by dilution with emulsifier containing water Ammonium salt and/or penetration enhancer in a dosage of 1000 ppm are added to the desired concentration if necessary.
Cabbage leaves (Brassica oleracea) are treated by being sprayed with the preparation of the active compound of the desired concentration and are infested with mustard beetle larvae (Phaedon cochleariae).
After the specified period of time mortality in % is determined. 100% means all the beetle larvae have been killed and 0% means none of the beetle larvae have been killed. The mortality values determined thus are recalculated using the Colby-formula (see sheet 1).

[6] = system: fall armyworm larvae (Spodoptera frugiperda); test: Spodoptera frugiperda - spray test (maize leaf sections); conditions: mortality
Description: as §1, with “preparation of the active compound,” for “preparation of active compound,”
Maize (Zea mais) leaf sections are sprayed with a preparation of the active ingredient of the desired concentration. Once dry, the leaf sections are infested with fall armyworm larvae (Spodoptera frugiperda).
After the specified period of time, mortality in % is determined. 100% means all caterpillars have been killed and 0% means none of the caterpillars have been killed. The mortality values determined thus are recalculated using the Colby-formula (see sheet 1).

[7] = system: green peach aphid (Myzus persicae); test: Myzus persicae - spray test, Example C-2 (cabbage leaves); conditions: mortality, 0.5 ppm
Description: as §2
Emulsifier: alkylaryl polyglycolether
as §3
Cabbage leaves (Brassica oleracea) which are heavily infested by the green peach aphid (Myzus persicae) are treated by being sprayed with the preparation of the active compound of the desired concentration.
After the specified period of time, mortality in % is determined 100% means all the aphids have been killed; 0% means none of the aphids have been killed. The mortality values determined thus are recalculated using the Colby-formula (see sheet 1).

CC1(C)[C@H](C(=O)O[C@H](C#N)c2cccc(Oc3ccccc3)c2)[C@@H]1/C=C(\Cl)C(F)(F)F (racemic) [Lambda-Cyhalothrin, lambda-Cyhalothrin]
Efficacy in % after 6d [1]: 0%
Efficacy in % after 3d ([2]; 1 ppm): 0%
Efficacy in % after 6d ([3]; 0.125 g ai/ha): 0%
Efficacy in % after 6d ([4]; 0.25 g ai/ha): 0%

Cc1cc(C(F)(C(F)(F)F)C(F)(F)F)ccc1NC(=O)c1cccc(Cl)c1C(=O)NC(C)(C)C#N [(I-5)]
Efficacy in % after 3d ([2]; 0.25 ppm): 0%
Efficacy in % after 3d ([5]; 1.2 ppm): 0%
Efficacy in % after 3d ([5]; 4.8 ppm): 50%
Efficacy in % after 6d ([3]; 1.25 g ai/ha): 0%
Efficacy in % after 6d ([3]; 1.5 g ai/ha): 0%
Efficacy in % after 6d ([3]; 15 g ai/ha): 0%
Efficacy in % after 6d ([6]; 0.8 g ai/ha): 33%
Efficacy in % after 6d ([4]; 2.5 g ai/ha): 0%
Efficacy in % after 6d ([4]; 12 g ai/ha): 0%

CC1(C)C(C=C(Cl)Cl)C1C(=O)OC(C#N)c1ccc(F)c(Oc2ccccc2)c1 (stereo not drawn) [Beta-Cyfluthrin (II-11), beta-Cyfluthrin]
Efficacy in % after 6d [7]: 50%
Efficacy in % after 3d ([5]; 1.2 ppm): 0%
Efficacy in % after 6d ([6]; 0.032 g ai/ha): 0%

CC1(C)[C@H](C(=O)O[C@H](C#N)c2cccc(Oc3ccccc3)c2)[C@@H]1C=C(Br)Br [Deltamethrin]
Efficacy in % after 6d ([3]; 0.15 g ai/ha): 0%
Efficacy in % after 6d ([6]; 0.25 g ai/ha): 0%
